Assay results from US7132546B2, “Aniline derivatives or salts thereof and cytokine production inhibitors containing the same” (Ishihara Sangyo Kaisha, Ltd., priority 2000, dated 2006).

Legend:
[1] = tested on: interleukin 5 (IL-5) production; assay: Cytokine production inhibitory effect: IL-5 production by murine spleen cells treated with anti-mouse CD3 antibody and IL-2 (ELISA); assay type: cell-based, Balb/c mice; settings: anti-CD3 antibody + IL-2, 40 to 48 hours, read-out: IL-5 production inhibitory ratio (%); for inhibition at 100 ppm: test compound 100 ppm
Experimental: (§1) Murine spleen cells were treated with anti-mouse CD3 antibody and IL-2 to induce cytokine production. The test compounds were added to the cytokine production system to evaluate their inhibitory effect. Namely, anti-mouse CD3 antibody adjusted to from 10 to 20 μg/ml with borate buffered physiological saline (pH 8.5) was pipetted into a 96-well cell culture plate in an amount of 50 μl/well and left to stand at 4° C. for 18 hours. The unreacted solution was removed, washing with Hank's buffer solution was carried out once, and IL-2 adjusted to 10 ng/ml with a RPMI liquid containing 10% fetal bovine serum (FCS) was pipetted in an amount of 50 μl/well. For the negative control group, a solution alone without anti-CD3 antibody nor IL-2 was applied. Then, the diluted solution of each of the test compounds (concentration: 100 ppm unless otherwise specified) was pipetted in an amount of 50 μl/well, and a cell suspension of 1×10^7 cells/ml, prepared from spleen of Balb/c mice (female, 7 to 10 week old) was pipetted thereinto in an amount of 100 μl/well. After cultivation in an incubator (37° C., 5% carbon dioxide gas) for from 40 to 48 hours, the culture supernatant was recovered to measure the cytokine production amount by ELISA method.
(§2) With respect to interleukin 5 (IL-5) as a typical Th2 type cytokine and interferon γ (IFN-γ) as a typical Th1 type cytokine, measurements were carried out by the following methods, respectively. Namely, quantitative determination of IL-5 was carried out by the following ELISA method. First, rat anti-mouse IL-5 antibody (Endogen Code No. MM-550C) as a primary antibody was diluted with carbonate buffer solution (pH 9.5) to 1 μg/ml, and spread in a 96 well plate (IWAKI, Code No. 3860-096) in an amount of 50 μl/well for coating at 4° C. overnight (16 to 24 hours). Then, the plate was subjected to blocking at 37° C. for 2 hours by phosphate buffered physiological saline containing 10% FCS (pH 7.2) (blocking buffer solution) (250 μl/well). The plate was washed with PBS (washing buffer) containing 0.05% Tween 20 (Nacalai Tesque, Code No. 281-51) four times, and a diluted liquid of the culture supernatant was spread in an amount of 50 μl/well, followed by incubation at room temperature for 1 hour. For preparation of a standard line, recombinant mouse IL-5 (R&D systems, Code No. 405-ML) was employed. The plate was washed with a washing buffer four times, and biotin-labeled rat anti-mouse IL-5 antibody (Pharmingen, Code No. 18062D) as a secondary antibody diluted to 0.5 μg/ml with a blocking buffer containing 0.05% Tween 20 was added thereto (50 μl/well), followed by incubation at room temperature for 1 hour. The plate was washed with a washing buffer four times, strept avidin-labeled peroxidase (ProZyme, Code No. CJ30H001) diluted 800 times with a blocking buffer containing 0.05% Tween 20 was added thereto (50 μl/well), followed by reaction at room temperature for 15 minutes. The plate was washed with a washing buffer four times, and a […] substrate solution (SIGMA, Code No. T-8665) was added thereto in an amount of 100 μl/well for color developing for from 10 to 20 minutes. A 1M sulfuric acid solution was added thereto in an amount of 100 μl/well to terminate the reaction, and absorption (wavelength 450 nm) was measured by means of micro plate reader (SPECTRA max, Wako Pure Chemicals Industries, Ltd.). Quantitative determination of IFN-γ was carried out in the same manner as the measurement of IL-5, employing rat anti-mouse IFN-γ antibody (Pharmingen, Code No. 18181D) and biotin labeled rat anti-mouse IFN-γ antibody (Pharmingen, Code NO. 18112D), as a primary antibody and a secondary antibody, respectively. For preparation of a standard line, recombinant mouse IFN-γ (GENZYME, Code No. 3485) was employed. The experiment was carried out in duplicate, and the average of the cytokine production amount was obtained. […]

[2] = tested on: interferon γ (IFN-γ) production; assay: Cytokine production inhibitory effect: IFN-γ production by murine spleen cells treated with anti-mouse CD3 antibody and IL-2 (ELISA); assay type: cell-based, Balb/c mice; settings: anti-CD3 antibody + IL-2, 40 to 48 hours, read-out: IFN-γ production inhibitory ratio (%); for inhibition at 100 ppm: test compound 100 ppm
Experimental: as §1, §2

Molecule COC(=O)c1cc(NC(=O)c2cc([N+](=O)[O-])ccc2Cl)ccc1Oc1ncc(C(F)(F)F)cc1Cl [compound 107] has an inhibition at 100 ppm [1] of 99%, a melting point of 226 to 229 °C and an inhibition at 100 ppm [2] of 97%.
O=C(Nc1ccc(S(=O)(=O)Nc2nccs2)cc1)c1cc([N+](=O)[O-])ccc1Cl [compound 142] gave an inhibition at 100 ppm [1] of 95%, a melting point of 140 to 147 °C and an inhibition at 100 ppm [2] of 99%.
In the case of Cc1cc(-c2nc3ccccc3s2)ccc1NC(=O)c1cc([N+](=O)[O-])ccc1Cl [Compound No. 2], the inhibition at 2 ppm ([1]; test compound 2 ppm) is reported as 74%, the melting point is reported as 220 to 226 °C and the inhibition at 2 ppm ([2]; test compound 2 ppm) is reported as 84%.
With Cc1cc(C23CC4CC(CC(C4)C2)C3)ccc1NC(=O)c1cc(S(C)(=O)=O)ccc1Cl [compound 75] the inhibition at 100 ppm [1] was 100%, the melting point was 96 to 100 °C and the inhibition at 100 ppm [2] was 100%.
In the case of O=C(Nc1ccccc1-c1ccccc1)c1cc([N+](=O)[O-])ccc1Cl [compound 38], the inhibition at 100 ppm [1] is reported as 86%, the melting point is reported as 154 °C and the inhibition at 100 ppm [2] is reported as 93%.
For COc1cc(NC(=O)c2cc([N+](=O)[O-])ccc2Cl)ccc1Oc1ncc(C(F)(F)F)cc1Cl [compound 109], the inhibition at 100 ppm [1] was 100%, the melting point was 190 to 193 °C and the inhibition at 100 ppm [2] was 95%.
Nc1cc(NC(=O)c2cc([N+](=O)[O-])ccc2Cl)ccc1Oc1ncc(C(F)(F)F)cc1Cl [compound 121] gave an inhibition at 100 ppm [1] of 97%, a melting point of 235 to 237 °C and an inhibition at 100 ppm [2] of 100%.
With Cc1cc(C23CC4CC(CC(C4)C2)C3)ccc1NC(=O)c1cccc(C#N)c1 [compound 50] the inhibition at 100 ppm [1] was 95%, the melting point was 83 °C and the inhibition at 100 ppm [2] was 98%.
O=C(Nc1ccc(Oc2ccccc2)cc1)c1cc([N+](=O)[O-])ccc1Cl [Compound No. 27, N-(4-phenoxyphenyl)-2-chloro-5-nitrobenzamide] showed an inhibition at 100 ppm [1] of 96%, a melting point of 128 °C and an inhibition at 100 ppm [2] of 99%.
In the case of CSc1ccc(NC(=O)c2cc([N+](=O)[O-])ccc2Cl)cc1 [compound 29], the inhibition at 100 ppm [1] is reported as 98%, the melting point is reported as 162 °C and the inhibition at 100 ppm [2] is reported as 100%.
Work on O=C(Nc1ccc(/N=N/c2ccccc2)cc1)c1cc([N+](=O)[O-])ccc1Cl [compound 67] yielded an inhibition at 100 ppm [1] of 99%, a melting point of 187 °C and an inhibition at 100 ppm [2] of 100%.
For COC(=O)c1cc(C(=O)Nc2ccc(C34CC5CC(CC(C5)C3)C4)cc2C)cc([N+](=O)[O-])c1 [compound 47], the inhibition at 100 ppm [1] was 89%, the melting point was 178 °C and the inhibition at 100 ppm [2] was 95%.
Work on Cc1cc(C23CC4CC(CC(C4)C2)C3)ccc1NS(=O)(=O)c1cc([N+](=O)[O-])ccc1Cl [Compound No. 48, N-(4-(1-adamantyl)-2-methylphenyl)-2-chloro-5-nitrobenzenesulfonamide] yielded an inhibition at 100 ppm [1] of 100%, a melting point of 238 °C and an inhibition at 100 ppm [2] of 100%.
In the case of Cc1cc(C23CC4CC(CC(C4)C2)C3)ccc1NC(=O)c1cc([N+](=O)[O-])ccc1Br [Compound No. 46, N-(4-(1-adamantyl)-2-methylphenyl)-2-bromo-5-nitrobenzamide], the inhibition at 100 ppm [1] is reported as 100%, the melting point is reported as 229 °C and the inhibition at 100 ppm [2] is reported as 98%.
Molecule O=C(Nc1ccc(Oc2ncc(C(F)(F)F)cc2Cl)cc1)c1cc([N+](=O)[O-])ccc1F [compound 98] has an inhibition at 100 ppm [1] of 96%, a melting point of 168 to 170 °C and an inhibition at 100 ppm [2] of 99%.
Work on Cc1cc(NC(=O)c2cc([N+](=O)[O-])ccc2Cl)ccc1Oc1ncc(C(F)(F)F)cc1Cl [Compound No. 106, N-(4-(3-chloro-5-trifluoromethyl-2-pyridyloxy)-3-methylphenyl)-2-chloro-5-nitrobenzamide] yielded an inhibition at 100 ppm [1] of 83%, a melting point of 230 to 232 °C and an inhibition at 100 ppm [2] of 96%.
In the case of O=C(Nc1ccc(Oc2ncc(C(F)(F)F)cc2Cl)cc1)c1cc([N+](=O)[O-])ccc1Cl [compound 64], the inhibition at 100 ppm [1] is reported as 98%, the melting point is reported as 203 °C and the inhibition at 100 ppm [2] is reported as 99%.
For Cc1cc(C23CC4CC(CC(C4)C2)C3)ccc1NC(=O)c1cc([N+](=O)[O-])ccc1O [compound 56], the inhibition at 100 ppm [1] was 100%, the melting point was 131 °C and the inhibition at 100 ppm [2] was 100%.
In the case of N#Cc1ccc(Cl)c(C(=O)Nc2ccc(Oc3ccccc3)cc2)c1 [compound 85], the inhibition at 100 ppm [1] is reported as 91%, the melting point is reported as 143 °C and the inhibition at 100 ppm [2] is reported as 86%.
O=C(Nc1ccc(CSc2ccccc2)cc1)c1cc([N+](=O)[O-])ccc1Cl [compound 79] gave an inhibition at 100 ppm [1] of 62%, a melting point of 176 to 180 °C and an inhibition at 100 ppm [2] of 90%.
For O=C(Nc1ccc(C(F)(F)F)cc1)c1cc([N+](=O)[O-])ccc1Cl [compound 30], the inhibition at 100 ppm [1] was 100%, the melting point was 176 °C and the inhibition at 100 ppm [2] was 100%.
In the case of O=C(Nc1ccc(Oc2ccc(C(F)(F)F)cn2)c(Cl)c1)c1ccc(Cl)cc1 [compound 5], the inhibition at 100 ppm [1] is reported as 76%, the melting point is reported as 186 to 188 °C and the inhibition at 100 ppm [2] is reported as 83%.
For Cc1cc(NC(=O)c2cc(C#N)ccc2Cl)ccc1Oc1ncc(C(F)(F)F)cc1Cl [compound 118], the inhibition at 100 ppm [1] was 78%, the melting point was 221 to 223 °C and the inhibition at 100 ppm [2] was 47%.
O=CNc1cccc(C(=O)Nc2ccc(Oc3ccc(C(F)(F)F)cn3)c(Cl)c2)c1O [compound 17] showed an inhibition at 100 ppm [1] of 100%, a melting point of 159 to 161 °C and an inhibition at 100 ppm [2] of 100%.
O=C(Nc1ccc(CSc2ncc(C(F)(F)F)cc2Cl)cc1)c1cc([N+](=O)[O-])ccc1Cl [compound 82] showed an inhibition at 100 ppm [1] of 90%, a melting point of 207 to 208 °C and an inhibition at 100 ppm [2] of 99%.
For Cc1cc(NS(=O)(=O)c2cc([N+](=O)[O-])ccc2Cl)ccc1Oc1ncc(C(F)(F)F)cc1Cl [compound 117], the inhibition at 100 ppm [1] was 100%, the melting point was 233 to 236 °C and the inhibition at 100 ppm [2] was 100%.
With CC(=O)Nc1cc(NC(=O)c2cc([N+](=O)[O-])ccc2Cl)ccc1Oc1ncc(C(F)(F)F)cc1Cl [compound 125] the inhibition at 100 ppm [1] was 100%, the melting point was 203 to 205 °C and the inhibition at 100 ppm [2] was 100%.
With O=C(Nc1ccc(C23CC4CC(CC(C4)C2)C3)cc1)c1cc([N+](=O)[O-])ccc1Br [compound 94] the inhibition at 100 ppm [1] was 85%, the melting point was 273 to 275 °C and the inhibition at 100 ppm [2] was 53%.
In the case of O=C(Nc1ccc(S(=O)(=O)Nc2ncccn2)cc1)c1cc([N+](=O)[O-])ccc1Cl [compound 137], the inhibition at 100 ppm [1] is reported as 98%, the melting point is reported as 252 to 258 °C and the inhibition at 100 ppm [2] is reported as 98%.
Cc1ccc(NC(=O)c2ccc([N+](=O)[O-])cc2Cl)c(C)c1 [compound 73] showed an inhibition at 100 ppm [1] of 64%, a melting point of 181 to 183 °C and an inhibition at 100 ppm [2] of 28%.
For Cc1cc(C23CC4CC(CC(C4)C2)C3)ccc1NC(=O)c1cccc([N+](=O)[O-])c1Cl [compound 60], the inhibition at 100 ppm [1] was 96%, the melting point was 222 °C and the inhibition at 100 ppm [2] was 93%.
With O=C(Nc1ccc(C23CC4CC(CC(C4)C2)C3)cc1)c1cc([N+](=O)[O-])ccc1Cl [compound 21] the inhibition at 100 ppm [1] was 96%, the melting point was 262 °C and the inhibition at 100 ppm [2] was 89%.
